According to US8785488B2 (Exelixis Patent Company LLC, priority 2009, dated 2014):

Columns and labels:
human TGR5 (h-TGR5) = target: T1, human TGR5 (h-TGR5) (Homo sapiens, UniProt Q8TDU6); experiment: TGR5/CRE-Luciferiase Assay (HEK 293 hTGR5/CRE-Luc cells); type: cell-based; settings: h-TGR5 CRE-Luc EC50, Table 1; read-out: CRE-Luc (EC50)
T1 construct: expressed in transfected cells
T1 sequence (Q8TDU6 1-330): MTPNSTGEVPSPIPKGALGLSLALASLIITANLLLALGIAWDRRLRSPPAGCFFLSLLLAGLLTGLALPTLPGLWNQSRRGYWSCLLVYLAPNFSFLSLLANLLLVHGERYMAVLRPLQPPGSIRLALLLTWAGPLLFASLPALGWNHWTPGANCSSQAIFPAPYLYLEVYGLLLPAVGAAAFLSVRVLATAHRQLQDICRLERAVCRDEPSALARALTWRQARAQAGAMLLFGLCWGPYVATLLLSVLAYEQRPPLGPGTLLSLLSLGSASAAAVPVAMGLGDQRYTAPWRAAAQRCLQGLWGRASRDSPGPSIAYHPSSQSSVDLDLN
Procedure, shortened: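 HEK293 cells stably carrying hTGR5 and a CRE-luciferase reporter were exposed to serially diluted compounds (diluted in DMEM with 5% DMSO) for 6 h. Cells were then lysed in luciferase buffer, luminescence was read, and EC50 values were derived from dose-response curves.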

h-TGR5 = target: T2, h-TGR5 (Homo sapiens, UniProt Q8TDU6); experiment: TGR5 cAMP Assay using Cisbio cAMP Dynamic2 htrf kit (hTGR5CRE-luc HEK 293 cells); type: cell-based; settings: h-TGR5 cAMP EC50, Table 1; read-out: cAMP (EC50)
T2 construct: expressed in transfected cells
T2 sequence (Q8TDU6 1-330): T1 sequence (Q8TDU6 1-330)
Procedure, shortened: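 […], 4000 hTGR5CRE-luc HEK 293 cells per well, with 0.5 mM IBMX and d2-cAMP, were incubated 30 min at room temperature with compounds in 8-point half-log series, in quadruplicate.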

Row | SMILES | EC50 (human TGR5 (h-TGR5)) [µM] | EC50 (h-TGR5) [µM]
1 | CC(C)(c1ccc(F)c(C#N)c1)c1cnc(SCc2ccc(S(=O)(=O)NC(=O)NN3CCCC3)cc2Cl)n1-c1ccc(F)cc1 [3-chloro-4-[({5-[1-(3-cyano-4-fluorophenyl)-1-methylethyl]-1-(4-fluorophenyl)-1H-imidazol-2-yl}thio)methyl]-N-[(pyrrolidin-1-ylamino)carbonyl]benzenesulfonamide] | 0.1 to 1 | 0.1 to 1
2 | CC(C)(c1ccc(Cl)c(Cl)c1)c1cnc(SCC2CCN(c3nnn[nH]3)C2)n1-c1ccc(F)cc1 (stereo not drawn) [5-{3-[({5-[1-(3,4-dichlorophenyl)-1-methylethyl]-1-(4-fluorophenyl)-1H-imidazol-2-yl}thio)methyl]pyrrolidin-1-yl}-1H-tetrazole] | 0.1 to 1 | 1 to 10
3 | CC(C)(c1ccc(C(N)=O)c(Cl)c1)c1cnc(SCc2ccc(F)cc2Cl)n1-c1ccc(F)cc1 [2-chloro-4-{1-[2-{[(2-chloro-4-fluorophenyl)methyl]thio}-1-(4-fluorophenyl)-1H-imidazol-5-yl]-1-methylethyl}benzamide] | 0.1 to 1 | < 0.1
4 | COc1cc(C(C)(C)c2cnc(SCc3ccc(C(=O)NCCC(=O)O)cc3F)n2-c2ccc(F)cc2)ccc1Cl [N-{[4-({[5-{1-[4-chloro-3-(methyloxy)phenyl]-1-methylethyl}-1-(4-fluorophenyl)-1H-imidazol-2-yl]thio}methyl)-3-fluorophenyl]carbonyl}-beta-alanine] | < 0.1 | < 0.1
5 | COc1cc(-n2c(C(C)(C)c3ccc(Cl)c(Cl)c3)cnc2SCc2ccc(C#CCNC(=N)N)c(C(=O)O)c2)ccc1F [2-(3-{[amino(imino)methyl]amino}prop-1-yn-1-yl)-5-[({5-[1-(3,4-dichlorophenyl)-1-methylethyl]-1-[4-fluoro-3-(methyloxy)phenyl]-1H-imidazol-2-yl}thio)methyl]benzoic acid] | 0.1 to 1 | 0.1 to 1
6 | CC(C)(c1ccc(Cl)c(Cl)c1)c1cnc(SCC2CCN(S(C)(=O)=O)CC2)n1-c1ccc(F)cc1 [4-[({5-[1-(3,4-dichlorophenyl)-1-methylethyl]-1-(4-fluorophenyl)-1H-imidazol-2-yl}thio)methyl]-1-(methylsulfonyl)piperidine] | < 0.1 | 0.1 to 1
7 | CCOC(=O)NS(=O)(=O)c1ccc(CSc2ncc(C(C)(C)c3ccc(Cl)c(OC)c3)n2-c2ccc(F)cc2)c(Cl)c1 [ethyl {[3-chloro-4-({[5-{1-[4-chloro-3-(methyloxy)phenyl]-1-methylethyl}-1-(4-fluorophenyl)-1H-imidazol-2-yl]thio}methyl)phenyl]sulfonyl}carbamate] | < 0.1 | < 0.1
8 | COc1ccc(C(C)(C)c2cnc(SCc3ccc(S(=O)(=O)NC(=O)NN4CCCC4)cc3Cl)n2-c2ccc(F)c(C)c2)cc1Cl [3-chloro-4-({[5-{1-[3-chloro-4-(methyloxy)phenyl]-1-methylethyl}-1-(4-fluoro-3-methylphenyl)-1H-imidazol-2-yl]thio}methyl)-N-[(pyrrolidin-1-ylamino)carbonyl]benzenesulfonamide] | 0.1 to 1 | 0.1 to 1
9 | CC(C)(c1ccc(Cl)c(Cl)c1)c1cnc(SCc2ccc(F)c(C(N)=O)c2)n1-c1ccc(F)cc1 [5-[({5-[1-(3,4-dichlorophenyl)-1-methylethyl]-1-(4-fluorophenyl)-1H-imidazol-2-yl}thio)methyl]-2-fluorobenzamide] | 0.1 to 1 | 0.1 to 1
10 | CC(C)(c1ccc(Cl)c(Cl)c1)c1cnc(SCc2cc(S(N)(=O)=O)c(Cl)cc2Cl)n1-c1ccc(F)cc1 [2,4-dichloro-5-[({5-[1-(3,4-dichlorophenyl)-1-methylethyl]-1-(4-fluorophenyl)-1H-imidazol-2-yl}thio)methyl]benzenesulfonamide] | < 0.1 | 0.1 to 1
11 | CC(C)(c1ccc(Cl)c(Cl)c1)c1cnc(SCc2ccc(-c3nnn[nH]3)cc2Cl)n1-c1ccc(F)cc1 [5-{3-chloro-4-[({5-[1-(3,4-dichlorophenyl)-1-methylethyl]-1-(4-fluorophenyl)-1H-imidazol-2-yl}thio)methyl]phenyl}-1H-tetrazole] | 0.1 to 1 | 0.1 to 1
12 | COc1cc(C(C)(C)c2cnc(SCc3ccc(S(=O)(=O)NC(=O)NCC(C)(C)O)cc3Cl)n2-c2ccc(F)cc2)ccc1Cl [3-chloro-4-({[5-{1-[4-chloro-3-(methyloxy)phenyl]-1-methylethyl}-1-(4-fluorophenyl)-1H-imidazol-2-yl]thio}methyl)-N-{[(2-hydroxy-2-methylpropyl)amino]carbonyl} benzenesulfonamide] | 0.1 to 1 | 0.1 to 1
13 | COc1cc(C(C)(C)c2cnc(SCc3ccc(F)c(S(N)(=O)=O)c3)n2-c2ccc(F)cc2)ccc1Cl [5-({[5-{1-[4-chloro-3-(methyloxy)phenyl]-1-methylethyl}-1-(4-fluorophenyl)-1H-imidazol-2-yl]thio}methyl)-2-fluorobenzenesulfonamide] | < 0.1 | < 0.1
14 | CC(C)(c1ccc(Cl)c(Cl)c1)c1cnc(SCc2c(F)cccc2Cl)n1-c1ccc(F)cc1F [2-{[(2-chloro-6-fluorophenyl)methyl]thio}-5-[1-(3,4-dichlorophenyl)-1-methylethyl]-1-(2,4-difluorophenyl)-1H-imidazole] | 0.1 to 1 | 0.1 to 1
15 | CC(C)(c1ccc(Cl)c(Cl)c1)c1cnc(CCc2ccc(S(N)(=O)=O)cc2Cl)n1-c1ccc(F)cc1 [3-chloro-4-(2-{5-[1-(3,4-dichlorophenyl)-1-methylethyl]-1-(4-fluorophenyl)-1H-imidazol-2-yl}ethyl)benzenesulfonamide] | 0.1 to 1 | 1 to 10
16 | CC(C)(c1ccc(Cl)c(Cl)c1)c1cnc(SCc2c(F)cccc2F)n1-c1ccc(F)cc1 [5-[1-(3,4-dichlorophenyl)-1-methylethyl]-2-{[(2,6-difluorophenyl)methyl]thio}-1-(4-fluorophenyl)-1H-imidazole] | < 0.1 | 0.1 to 1
17 | COc1cc(-n2c(C(C)(C)c3ccc(S(N)(=O)=O)c(Cl)c3)cnc2SCc2c(F)cc(S(=O)(=O)NC(=O)NN3CCOCC3)cc2F)ccc1F [4-{[(5-{1-[4-(aminosulfonyl)-3-chlorophenyl]-1-methylethyl}-1-[4-fluoro-3-(methyloxy)phenyl]-1H-imidazol-2-yl)thio]methyl}-3,5-difluoro-N-[(morpholin-4-ylamino)carbonyl]benzenesulfonamide] | < 0.1 | < 0.1
18 | COc1cc(C(C)(C)c2cnc(SCc3c(F)cc(S(=O)(=O)NCCS(=O)(=O)O)cc3F)n2-c2ccc(F)cc2)ccc1Cl [2-({[4-({[5-{1-[4-chloro-3-(methyloxy)phenyl]-1-methylethyl}-1-(4-fluorophenyl)-1H-imidazol-2-yl]thio}methyl)-3,5-difluorophenyl]sulfonyl}amino)ethanesulfonic acid] | < 0.1 | < 0.1
19 | COc1cc(C(C)(C)c2cnc(COc3ccc(Cl)c(-c4nnn[nH]4)c3)n2-c2ccc(F)cc2)ccc1Cl [5-[2-chloro-5-({[5-{1-[4-chloro-3-(methyloxy)phenyl]-1-methylethyl}-1-(4-fluorophenyl)-1H-imidazol-2-yl]methyl}oxy)phenyl]-1H-tetrazole] | < 0.1 | 0.1 to 1
20 | COc1cc(C(C)(C)c2cnc(SCc3c(F)cc(C(=O)NCCCC(N)C(=O)O)cc3Cl)n2-c2ccc(F)cc2)ccc1Cl [N-5-{[3-chloro-4-({[5-{1-[4-chloro-3-(methyloxy)phenyl]-1-methylethyl}-1-(4-fluorophenyl)-1H-imidazol-2-yl]thio}methyl)-5-fluorophenyl]carbonyl}-L-ornithine] | < 0.1 | < 0.1
21 | COc1cc(C(C)(C)c2cnc(SCc3ccc(S(=O)(=O)NC(=O)NN4CCCC4)cc3Cl)n2-c2ccc(F)cc2)ccc1F [3-chloro-4-({[5-{1-[4-fluoro-3-(methyloxy)phenyl]-1-methylethyl}-1-(4-fluorophenyl)-1H-imidazol-2-yl]thio}methyl)-N-[(pyrrolidin-1-ylamino)carbonyl]benzenesulfonamide] | 0.1 to 1 | 0.1 to 1
22 | CC(C)(c1ccc(C#N)c(Cl)c1)c1cnc(SCc2ccc(F)cc2Cl)n1-c1ccc(F)cc1 [2-chloro-4-{1-[2-{[(2-chloro-4-fluorophenyl)methyl]thio}-1-(4-fluorophenyl)-1H-imidazol-5-yl]-1-methylethyl}benzonitrile] | 0.1 to 1 | 0.1 to 1
23 | COc1cc(C(C)(C)c2cnc(SCc3c(F)cc(C#CCNC(=N)N)cc3F)n2-c2ccc(F)cc2)ccc1Cl [1-{3-[4-({[5-{1-[4-chloro-3-(methyloxy)phenyl]-1-methylethyl}-1-(4-fluorophenyl)-1H-imidazol-2-yl]thio}methyl)-3,5-difluorophenyl]prop-2-yn-1-yl}guanidine] | < 0.1 | < 0.1
24 | COc1cc(C(C)(C)c2cnc(SCc3c(F)cc(OCCCNC(=N)N)cc3Cl)n2-c2ccc(F)cc2)ccc1F [1-(3-{[3-chloro-5-fluoro-4-({[5-{1-[4-fluoro-3-(methyloxy)phenyl]-1-methylethyl}-1-(4-fluorophenyl)-1H-imidazol-2-yl]thio}methyl)phenyl]oxy}propyl)guanidine] | < 0.1 | < 0.1
